Measurements from ChEMBL document CHEMBL1201862, “PubChem BioAssay data set” (2004).
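Interpolation was linear, between the two tested concentrations surrounding the appropriate level; five concentrations were tested over 48 hours in 96-well plates. GI50: concentration for 50% inhibition of growth.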 Active and inactive are the calls of the source. Rule as the data show it: active = GI50 up to about 1.1 µM and inactive = higher.

Key:
Test in all cases: growth of human tumour cells (NCI), 48 h
IGROV-1 = tested on: IGROV-1
HCT-116 = tested on: HCT-116
A498 = tested on: A498
OVCAR-4 = tested on: OVCAR-4
HOP-92 = tested on: HOP-92
786-0 = tested on: 786-0
MOLT-4 = tested on: MOLT-4
DU-145 = tested on: DU-145
Malme-3M = tested on: Malme-3M
NCI-H522 = tested on: NCI-H522
KM-20L2 = tested on: KM-20L2
UACC-257 = tested on: UACC-257
HT-29 = tested on: HT-29
COLO 205 = tested on: COLO 205
HL-60 = tested on: HL-60
M19-MEL = tested on: M19-MEL
SF-295 = tested on: SF-295
CAKI-1 = tested on: CAKI-1

Compound | GI50 (IGROV-1) | GI50 (HCT-116) | GI50 (A498) | GI50 (OVCAR-4) | GI50 (HOP-92) | GI50 (786-0) | GI50 (MOLT-4) | GI50 (DU-145) | GI50 (Malme-3M) | GI50 (NCI-H522) | GI50 (KM-20L2) | GI50 (UACC-257) | GI50 (HT-29) | GI50 (COLO 205) | GI50 (HL-60) | GI50 (M19-MEL) | GI50 (SF-295) | GI50 (CAKI-1)
CCOC(OCC)C(CC)[Se]c1ccccc1[N+](=O)[O-] (stereo not drawn) | 3.48 µM (inactive) | 3.6 µM (inactive) | 2.17 µM (inactive) | > 55.5 µM (inactive) | > 22.2 µM (inactive) | 3.41 µM (inactive) | 2.9 µM (inactive) | 3.95 µM (inactive) | 7.28 µM (inactive) | 1.72 µM (inactive) | 1.96 µM (inactive) | 8.83 µM (inactive) | 2.39 µM (inactive) | 2.48 µM (inactive) | 0.418 µM (active) | 4.42 µM (inactive) | 2.32 µM (inactive) | 2.75 µM (inactive)
COC(=O)C1=C(C(=O)OC)C23CC4CCC2(C(=O)C1O3)C4(C)C (stereo not drawn) | > 100 µM (inactive) | 51.8 µM (inactive) | > 100 µM (inactive) | > 100 µM (inactive) | 48.5 µM (inactive) | > 100 µM (inactive) | 30.4 µM (inactive) | > 100 µM (inactive) | > 100 µM (inactive) | 22 µM (inactive) | > 100 µM (inactive) | > 100 µM (inactive) | > 100 µM (inactive) | > 100 µM (inactive) | 21.2 µM (inactive) | > 100 µM (inactive) | 95.1 µM (inactive) | > 100 µM (inactive)
CCCc1c(C(=O)OCC)[nH]c(-c2ccc(-c3[nH]c(C(=O)OCC)c(CCC)c3C(=O)OCC)s2)c1C(=O)OCC | 58.2 µM (inactive) | 33.3 µM (inactive) | 43.9 µM (inactive) | 18.4 µM (inactive) | 25.2 µM (inactive) | 21.8 µM (inactive) | 65 µM (inactive) | – | 39.5 µM (inactive) | 32.6 µM (inactive) | 72.1 µM (inactive) | 66.1 µM (inactive) | 38.8 µM (inactive) | > 100 µM (inactive) | 46 µM (inactive) | 52.8 µM (inactive) | 27.9 µM (inactive) | 39.7 µM (inactive)
